{"source": "patent US20160250208A1", "about": "“TREATING ORGAN-SPECIFIC T CELL MEDIATED AUTOIMMUNE DISEASES” (UNIVERSITY OF MASSACHUSETTS, priority 2013, published 2016)", "key": {"SVEC4-10 cells": {"tested_on": "SVEC4-10 cells", "assay": "Trans-endothelial migration assay across SVEC4-10 endothelial cells", "format": "cell-based, mouse", "conditions": "DKO LN cells pre-activated with Ionomycin 2 μg/ml for 2 hours; FIG. 8F"}, "Ctla4−/− mice": {"tested_on": "Ctla4−/− mice", "assay": "Treatment of Ctla4−/− mice with ITK inhibitors (survival, T cell activation, LN size, tissue infiltration)", "format": "in vivo, mouse", "conditions": "BMS509744 at 50 mg/kg, 10n at 1 mg/kg and 10 mg/kg, starting at 10 days of age; FIG. 5A", "protocol": "Control mice (n=10) were injected with solvent alone. […] Data are representative of three experiments with 4-10 mice in each group per experiment."}, "ITK": {"target": "T1, ITK (Homo sapiens, UniProt Q08881)", "T1 sequence (Q08881 1-620)": "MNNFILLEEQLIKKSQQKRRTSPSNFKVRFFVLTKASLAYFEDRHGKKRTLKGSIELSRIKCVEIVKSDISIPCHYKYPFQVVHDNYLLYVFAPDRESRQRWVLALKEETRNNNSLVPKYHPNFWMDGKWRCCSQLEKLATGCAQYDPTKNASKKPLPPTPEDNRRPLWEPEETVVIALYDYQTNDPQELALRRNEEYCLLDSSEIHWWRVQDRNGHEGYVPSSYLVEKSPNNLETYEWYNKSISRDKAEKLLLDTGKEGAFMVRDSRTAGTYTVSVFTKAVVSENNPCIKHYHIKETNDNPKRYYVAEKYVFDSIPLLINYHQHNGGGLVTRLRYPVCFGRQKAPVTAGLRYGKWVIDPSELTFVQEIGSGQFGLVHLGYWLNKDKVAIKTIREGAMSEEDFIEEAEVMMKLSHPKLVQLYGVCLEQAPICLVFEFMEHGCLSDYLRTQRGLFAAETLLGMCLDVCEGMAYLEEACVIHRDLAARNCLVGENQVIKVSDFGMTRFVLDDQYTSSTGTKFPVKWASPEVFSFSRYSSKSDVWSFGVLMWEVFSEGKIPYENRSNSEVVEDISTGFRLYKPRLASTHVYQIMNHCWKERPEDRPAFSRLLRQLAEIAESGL", "conditions": "ATP-competitive; cited from earlier work"}, "Fyn, IR, Lck, Btk": {"tested_on": "Fyn, IR, Lck, Btk", "conditions": "cited from earlier work"}, "14 other kinases": {"tested_on": "14 other kinases", "conditions": "cited from earlier work"}}}
{"smiles": "C[C@H](CCC(=O)O)C[C@H](C)C[C@H](C)C(=O)/C=C(\\O)[C@H](C)C[C@H](C)C/C=C/[C@@H](C)[C@@H](O)[C@@H](C)[C@@H](O)C[C@@H]1CC[C@@](C)([C@H]2CC[C@@](C)([C@@H](C)O)O2)O1", "note": "[Ionomycin]", "values": [{"measurement": "frequency of DKO T cells migrating across the endothelium", "setting": "SVEC4-10 cells", "value": "increased the frequency of DKO T cells that were able to migrate across the endothelium"}]}
{"smiles": "COc1cc(C)c(Sc2cnc(NC(=O)c3ccc(CNC(C)C(C)(C)C)cc3)s2)cc1C(=O)N1CCN(C(C)=O)CC1", "note": "(centres unmarked) [BMS509744]", "values": [{"measurement": "lifespan of Ctla4−/− mice", "setting": "Ctla4−/− mice", "value": "significantly increased their lifespan"}, {"measurement": "inhibition of ITK kinase activity", "setting": "ITK", "value": "potently inhibits ITK kinase activity"}, {"measurement": "inhibition of Fyn, IR, Lck, Btk", "setting": "Fyn, IR, Lck, Btk", "value": "only at high concentrations"}, {"measurement": "activity against 14 other kinases", "setting": "14 other kinases", "value": "little or no activity"}]}
